We go through 20 compounds from US20220289732A1, “HETEROCYCLIC WDR5 INHIBITORS AS ANTI-CANCER COMPOUNDS” (NOVARTIS AG, priority 2019, published 2022).

The test system of test [1] is MV4-11 cells. The experiment in a line: MV4-11 6-day cell growth CTG (CellTiter-Glo) assay. The test is classed as cell-based. The conditions noted are these: Homo sapiens, MV4-11, 144 h, 6 days, read-out: (c) MLL/WDR5 cell proliferation assay//MLL/WDR5 proliferation MV4:11 Qualified AC50. The gist of the method:
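IC50 comes from a dose-response fit of % inhibition relative to DMSO controls, with viable cells measured by CellTiter-Glo luminescence. Compounds were tested over 12 points (1:3, starting at 50 μM final) on MV4-11 cells plated at 300/well and grown 6 days.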

Test [2] deals with wild type MLL1 four-member complex (MLL1-4C) (Homo sapiens, UniProt P61964). The experiment in a line: MLL1 LC-MS assay (SAH production). The test is classed as biochemical. The conditions noted are these: read-out: (b) MLL LCMS Peptide Val.v.1 Qualified AC50. The gist of the method:
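SAH formation, measured by LC-MS/MS after a TFA quench containing d4-SAH, was normalised to no-compound and no-enzyme controls and fitted to a dose-response curve for IC50. Reactions ran 120 min at rt (pH 8.0 Tris buffer) with final 30 nM MLL1 four-member complex, 2.5 μM SAM and 10 μM biotinylated H3[1-21] peptide, after a 20-min enzyme/SAM-compound preincubation.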

The target of test [3] is WDR5 (Homo sapiens, UniProt P61964). The experiment in a line: WDR5 HTRF binding assay. The conditions noted are these: read-out: (a) WDR5 HTRF Pep Val v.1[Inhibitor/IC50]Qualified AC50. The gist of the method: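 In this HTRF displacement format, biotinylated MLL1 WIN peptide (3762-3773, 20 nM) binds WDR5 (6 nM) in 25 mM Hepes pH 7.5 with 100 mM NaCl, 2 mM DTT and 0.1% BSA for 20 min at rt. Detection used streptavidin-APC/anti-His-Eu for 1 hr. IC50 came from dose-response fits of normalized signal; 15 nM biotin-PEG-His peptide served as counter assay.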
(Time-resolved FRET reads energy transfer from a long-lived donor to a nearby acceptor.)

In the case of `CCOc1cc([C@H](C)N2CCc3c(cc(Cn4ccnc4C)cc3-c3ccnn3C)C2=O)ncc1C#N` [Example 279], the AC50 in test [1] and in test [2] was 10 to 1000 nM in each case. Further, in test [3], the IC50 is under 10 nM.

As to `CCOc1cc([C@H](C)N2CCc3c(cc(CCN(C)CC)cc3-c3cn(C)nc3C)C2=O)ncc1Cl` [Example 121, (S)-2-(1-(5-chloro-4-ethoxypyridin-2-yl)ethyl)-5-(1,3-dimethyl-1H-pyrazol-4-yl)-7-(2-(ethyl(methyl)amino)ethyl)-3,4-dihydroisoquinolin-1(2H)-one], the AC50 in test [1] and in test [2] was 10 to 1000 nM each time. Further, the IC50 in test [3] is under 10 nM.

As for `CCOc1cc([C@H](C)N2CCc3c(Cl)cc(Cn4ccnc4NC)cc3C2=O)cnc1C#N` [Example 4, (S)-5-(1-(5-chloro-7-((2-(methylamino)-1H-imidazol-1-yl)methyl)-1-oxo-3,4-dihydroisoquinolin-2(1H)-yl)ethyl)-3-ethoxypicolinonitrile], the AC50 in test [1] and in test [2] was 10 to 1000 nM in each case. In addition, the IC50 in test [3] is 10 to 1000 nM.

Turning to `CCOc1cc([C@H](C)N2CCc3c(cc(CCN(C)CC)cc3-c3c[nH]nc3C)C2=O)ncc1C#N` [Example 116, (S)-4-ethoxy-6-(1-(7-(2-(ethyl(methyl)amino)ethyl)-5-(3-methyl-1H-pyrazol-4-yl)-1-oxo-3,4-dihydroisoquinolin-2(1H)-yl)ethyl)nicotinonitrile], the AC50 in test [1] and in test [2] was 10 to 1000 nM throughout. Also, the IC50 in test [3] was under 10 nM.

As for `CCOc1cc([C@@H](C)N2CCc3c(cc(CCN(C)CC)cc3-c3cc(C)cnc3C)C2=O)ncc1C#N` [Example 156, (R)-6-(1-(5-(2,5-dimethylpyridin-3-yl)-7-(2-(ethyl(methyl)amino)ethyl)-1-oxo-3,4-dihydroisoquinolin-2(1H)-yl)ethyl)-4-ethoxynicotinonitrile], the AC50 is 1000 to 25000 nM in test [1] and 10 to 1000 nM in test [2]. Besides, the IC50 in test [3] was in the range of 10 to 1000 nM.

Turning to `CCOc1cc(C(C)N2CCc3c(cc(CCN(C)CCF)cc3-c3cn(C)c(=O)cc3Cl)C2=O)ncc1C#N` (stereo not drawn) [Example 237], the AC50 in test [1] and in test [2] was 10 to 1000 nM throughout. The IC50 in test [3] is under 10 nM.

Consider `CCOc1cc(CN2CCc3c(cc(Cn4ccnc4NC)cc3C3CC3)C2=O)cnc1C#N` [Example 84, 5-((5-cyclopropyl-7-((2-(methylamino)-1H-imidazol-1-yl)methyl)-1-oxo-3,4-dihydroisoquinolin-2(1H)-yl)methyl)-3-ethoxypicolinonitrile], for which the AC50 in test [1] and in test [2] was 10 to 1000 nM in each case. The IC50 in test [3] lay in the range of 10 to 1000 nM.

On to `CCOc1cc([C@H](C)N2CCc3c(cc(CCN(C)CCF)cc3-c3cc(C)ncc3C)C2=O)ncc1C#N` [Example 254], for which the AC50 in test [1] and in test [2] was 10 to 1000 nM in each case. Besides, the IC50 in test [3] was 10 to 1000 nM.

In the case of `CCOc1cc([C@H](C)N2CCc3c(cc(CCN(C)CC)cc3-c3ccn(C)c(=O)c3C(F)(F)F)C2=O)ncc1C#N` [Example 195, (S)-4-ethoxy-6-(1-(7-(2-(ethyl(methyl)amino)ethyl)-5-(1-methyl-2-oxo-3-(trifluoromethyl)-1,2-dihydropyridin-4-yl)-1-oxo-3,4-dihydroisoquinolin-2(1H)-yl)ethyl)nicotinonitrile], the AC50 in test [1] and in test [2] was 10 to 1000 nM in each case. Moreover, in test [3], the IC50 was 10 to 1000 nM.

With `CCOc1cc([C@H](C)N2CCc3c(CN(C)C)cc(Cn4ccnc4C)cc3C2=O)ncc1C#N` [Example 295], the AC50 in test [1] is 1000 to 25000 nM; in test [2] it was 10 to 1000 nM. Also, the IC50 in test [3] lay in the range of 10 to 1000 nM.

With `CCOc1cc(C(C)N2CCc3c(cc(CCN(C)CC)cc3-c3cccnc3CC)C2=O)ncc1C#N` (stereo not drawn) [Example 151, 4-ethoxy-6-(1-(7-(2-(ethyl(methyl)amino)ethyl)-5-(2-ethylpyridin-3-yl)-1-oxo-3,4-dihydroisoquinolin-2(1H)-yl)ethyl)nicotinonitrile], the AC50 in test [1] and in test [2] was 10 to 1000 nM throughout. Moreover, the IC50 in test [3] fell in the range of 10 to 1000 nM.

In the case of `CNc1nccn1Cc1cc(CN(C)C2COC2)c2c(c1)C(=O)N([C@@H](C)c1cc(OC)c(F)cn1)CC2` [Example 13], the AC50 in test [1] and in test [2] was 10 to 1000 nM each time. Besides, the IC50 in test [3] is 10 to 1000 nM.

On to `CCOc1cc([C@H](C)N2CCc3c(cc(CCN4CC[C@H]4C)cc3-c3ccc(F)nc3C)C2=O)ncc1C#N` [Example 235], for which the AC50 in test [1] and in test [2] was 10 to 1000 nM each time. Also, the IC50 in test [3] was under 10 nM.

Turning to `CCOc1cc(C(C)N2CCc3c(cc(CCN(C)CC)cc3-c3cc(C)nnc3C)C2=O)ncc1C` (stereo not drawn) [Example 211, 5-(3,6-dimethylpyridazin-4-yl)-2-(1-(4-ethoxy-5-methylpyridin-2-yl)ethyl)-7-(2-(ethyl(methyl)amino)ethyl)-3,4-dihydroisoquinolin-1(2H)-one], the AC50 in test [1] and in test [2] was 10 to 1000 nM throughout. Further, the IC50 in test [3] is under 10 nM.

Consider `CCOc1cc(CN2CCc3c(cc(CCN4CC[C@H]4C)cc3-c3ccc(F)nc3C)C2=O)ncc1C#N` [Example 245], for which the AC50 in test [1] and in test [2] was 10 to 1000 nM in each case. Also, the IC50 in test [3] lay within 10 to 1000 nM.

As to `CNc1nccn1Cc1cc(CN2CCC23COC3)c2c(c1)C(=O)N([C@@H](C)c1cc(OC)c(F)cn1)CC2` [Example 17, (S)-5((6-oxa-1-azaspiro+3.3+heptan-1-yl)methyl)-2-(1-(5-fluoro-4-methoxypyridin-2-yl)ethyl)-7-((2-(methylamino)-1H-imidazol-1-yl)methyl)-3,4-dihydroisoquinolin-1(2H)-one], the AC50 in test [1] and in test [2] was 10 to 1000 nM in each case. Also, the IC50 in test [3] lay in the range of 10 to 1000 nM.

For the compound `CCOc1cc([C@H](C)N2CCc3c(cc(CCN4C[C@@H](O)[C@H]4C)cc3-c3cc(C)cnc3C)C2=O)ncc1C#N` [Example 220], the AC50 in test [1] and in test [2] was 10 to 1000 nM each time. The IC50 in test [3] was under 10 nM.

As for `CCOc1cc([C@H](C)N2CCc3c(cc(CCN(C)CC)cc3-c3cc4ocnc4nc3C)C2=O)ncc1C#N` [Example 181, (S)-4-ethoxy-6-(1-(7-(2-(ethyl(methyl)amino)ethyl)-5-(5-methyloxazolo[4,5-b]pyridin-6-yl)-1-oxo-3,4-dihydroisoquinolin-2(1H)-yl)ethyl)nicotinonitrile], the AC50 in test [1] and in test [2] was 10 to 1000 nM throughout. Also, the IC50 in test [3] is under 10 nM.

For `CCOc1cc(C(C)N2CCc3c(cc(CCN(C)CC)cc3-c3cc(O)cnc3C)C2=O)ncc1C#N` (stereo not drawn) [Example 150, 4-ethoxy-6-(1-(7-(2-(ethyl(methyl)amino)ethyl)-5-(5-hydroxy-2-methylpyridin-3-yl)-1-oxo-3,4-dihydroisoquinolin-2(1H)-yl)ethyl)nicotinonitrile], the AC50 in test [1] and in test [2] was 10 to 1000 nM in each case. For the same compound, in test [3], the IC50 was in the range of 10 to 1000 nM.

For the compound `CNc1nccn1Cc1cc2c(c(-c3cc([C@H](C)O)cnc3Cl)c1)CCN(Cc1ccc(F)c(OC)c1)C2=O` (single isomer, unassigned) [Example 76], the AC50 in test [1] and in test [2] was 10 to 1000 nM each time. The IC50 in test [3] is under 10 nM.
